Laboratory results reported in the NIST ThermoML archive (doi:10.1021/je800732f).
Numbers after ± are expanded uncertainties.

Test: cn = amount concentration of the nth substance listed, in mol/dm3
Conditions: 101 kPa, Liquid; for viscosity: Concentric cylinders viscometry, c1 = 0.025; for mass density: Vibrating tube method

NCC(=O)NCC(=O)O [glycylglycine] + O
viscosity (293.15 K): 1.019 ± 0.0071 mPa·s
viscosity (298.15 K): 0.9026 ± 0.0067 mPa·s
viscosity (303.15 K): 0.8068 ± 0.0064 mPa·s

[Cl-].[Na+] [sodium chloride] + O
mass density (298.15 K, c1 = 0.2091): 1005.46 ± 0.056 kg/m3
mass density (298.15 K, c1 = 0.5066): 1015.26 ± 0.065 kg/m3
mass density (298.15 K, c1 = 1.013): 1034.19 ± 0.085 kg/m3
mass density (298.15 K, c1 = 1.503): 1049.73 ± 0.11 kg/m3
mass density (298.15 K, c1 = 1.974): 1074.45 ± 0.15 kg/m3
mass density (298.15 K, c1 = 2.45): 1088.01 ± 0.19 kg/m3
